From US11076597B2, “High stress resistant plant growth regulator and preparation method and use thereof” (SHANGHAI INSTITUTES FOR BIOLOGICAL SCIENCES, CHINESE …, priority 2015, dated 2021)
“Also recorded” adds a separate entry of the source.

What was measured:
soybean = experiment: Soil drought experiment, soybean; assay type: in vivo
Procedure: Soybean, cotton and wheat for leaf transpiration experiments were used simultaneously for soil drought experiments, each pot was filled with the same weight of soil to reduce experimental error. All the soybean plants were subjected to a long-day culture at 26° C. 14 days after sowing, watering was stopped and the plants with the consistent growth condition were selected for drought treatment. At the start of the drought, a solution containing 0.1% Tween-20 and 20 μM (+)-ABA/0224/0304 or 0.1% Tween-20 and 0.05% DMSO (control) was sprayed onto the leaf surface once with a spray amount of 4 ml solution/pot. Meanwhile, the position of the pot was changed and re-watered 6 days after the drought, and the photos were taken 1 day after re-watering. The drought experiment of cotton was similar to that of soybeans, watering was stopped 25 days after sowing, the plants with the consistent growth condition were selected for drought treatment. At the start of the drought, a solution containing 0.1% Tween-20 and 20 μM (+)-ABA/0224 or 0.1% Tween-20 and 0.05% DMSO (control) was sprayed onto the leaf surface once with a spray amount of 4 ml solution/pot, and then sprayed once every 3 days. Meanwhile, the position of the pot was changed and re-watered 6 days after the drought, and the photos were taken before re-watering and 1 day after re-watering. In the drought experiment of wheat, the wheat with the consistent growth condition 16 days after sowing was selected for the drought treatment, at the start of the drought, a solution with 0.1% Tween-20 and 100 μM (+)-ABA/0224 or 0.1% Tween-20 and 0.05% DMSO (control) was sprayed once, and then sprayed once every 3 days with a spray amount of 4 ml/pot. Meanwhile, the position of the pot was changed and the photos were taken 6 days after the drought.
Soil drought experiments used for compound 0428 on soybean and maize were similar to that used for compound 0224 on soybeans, with only one plant contained in each pot. All soybean plants were long-day cultured at 26° C. […]

[1] = target: T1, PYL2 receptor-HAB1 protein phosphatase complex (Arabidopsis thaliana, UniProt O80992); experiment: AlphaScreen assay, PYL2 receptor binding to HAB1; assay type: biochemical; conditions: fraction of the EC50 of ABA; FIG. 2c, 2e-2g
T1 construct: made in house; host or cells: E. coli BL21 (DE3)
T1 sequence (O80992 14-188): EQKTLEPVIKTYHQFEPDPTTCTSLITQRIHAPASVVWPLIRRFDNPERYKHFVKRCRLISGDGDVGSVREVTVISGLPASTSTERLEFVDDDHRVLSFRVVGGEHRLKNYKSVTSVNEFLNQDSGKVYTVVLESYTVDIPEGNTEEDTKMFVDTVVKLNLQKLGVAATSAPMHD
T1 sequence (Q9CAJ0 172-511 partner limits assumed): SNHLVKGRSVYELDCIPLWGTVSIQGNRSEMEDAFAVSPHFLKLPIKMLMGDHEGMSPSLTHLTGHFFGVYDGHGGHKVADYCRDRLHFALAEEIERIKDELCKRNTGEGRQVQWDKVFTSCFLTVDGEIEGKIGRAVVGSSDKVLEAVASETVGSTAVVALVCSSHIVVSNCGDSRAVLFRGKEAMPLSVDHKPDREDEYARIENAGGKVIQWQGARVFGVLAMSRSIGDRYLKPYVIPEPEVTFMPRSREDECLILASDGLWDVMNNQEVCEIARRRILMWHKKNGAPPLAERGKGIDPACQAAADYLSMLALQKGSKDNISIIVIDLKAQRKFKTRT
Procedure: The AlphaScreen kit (available from Perkin Elmer) was used, and the method was as follows: a 10× buffer (50 mM MOPS, pH 7.4, 50 mM NaF, 50 mM CHAPS, 0.1 mg/ml bovine serum albumin) diluted at 1:10, each of 100 nM HAB1 with Biotin tag sequence and PYR1/PYL1/PYL2/PYL7/GmPYL6/OsPYL2 protein with dual tags of 6×His and SUMO sequences, corresponding concentrations of (+)-ABA/0224/0304/0706/0708/0713/0715/0428/NC0F4, and 5 μg/ml donor beads and acceptor beads (available from Perkin Elmer) were contained in 150 μl of experimental system. After incubating for 1.5 hours at room temperature in the dark, it was placed into an Envision Plate Reader (available from Perkin Elmer) under the programmed AlphaScreen procedure for readings.
AlphaScreen technology was used to test the ability of the compounds of the present invention to promote PYL receptor binding to PP2C protein phosphatase (HAB1).

[2] = system: Arabidopsis thaliana Col-0 ecotype; experiment: Soil drought experiment, Arabidopsis; assay type: in vivo; conditions: for growth after drought: 5 μM spray, two weeks after the drought, FIG. 12; for survival/growth after drought: 5 μM sprayed once every week, twice in total, four weeks of drought, FIG. 7
Procedure: Seeds of Arabidopsis Col-0 ecotype were sterilized with NaClO and then sown on ½ MS solid medium at 4° C. for 3 days of vernalization. After 6 days of growing, the well-grown seedlings having uniform size were selected and transferred into 8×7×6 cm^3 pots. Each pot was filled with the same weight of soil and same number of plants (six plants) was transferred to reduce experimental error. All the pots were subjected to a short-day culture at 22° C. After two weeks, watering was stopped for drought treatment. A solution containing 0.05% Tween-20 and 5 μM 0224/0706/0715/0428 or 0.05% Tween-20 and 0.05% DMSO (control) was sprayed onto the leaf surface once per week with a spray amount of 2 ml solution/pot. The position of the flowerpot was changed every day during the process of drought to reduce the error caused by environmental factors. During the whole drought period, the solution was sprayed twice in total and photos were recorded after four weeks.
Arabidopsis thaliana Col-0 ecotype that had been growing in the soil for two weeks was stopped watering, the leaf was sprayed with a solution containing 5 μM compound 0224/0706/0715 or 0.05% DMSO (control) once every week during the drought, with a spray amount of 2 ml solution/pot, twice in total and a 0.05% (v/v) surfactant Tween-20 was added to the solution to enhance the penetrating effect of the spray agent on the leaf epidermis. […] The same method was performed for drought treatment and (+)-ABA or 0428-treated Arabidopsis was photographed two weeks after the drought.

[3] = 20 μM sprayed once, re-watering after 6 days of drought, FIG. 8

SMILES | EC50 value with PYL2 receptor-HAB1 complex as fraction of that of ABA [1] | growth after drought and re-watering (soybean; 50 μM sprayed once a day for two days, 9 days of drought, FIG. 14a) | growth after drought [2] | survival/growth after drought [2] | growth after drought and re-watering (soybean; [3])
CC1=CC(=O)CC(C)(C)[C@@]1(O)/C=C/C(C)=C\C(=O)O [ABA, Abscisic Acid, reference compound] |  |  | had no difference from that of plants in the DMSO-sprayed control group |  | 
CCN1C(=O)OC(C)c2cc(NS(=O)(=O)Cc3c(F)c(F)c(C)c(F)c3F)ccc21 (stereo not shown) [Compound 0706] | ⅕-⅛ |  |  | still grows normally; also recorded: still survived | 

Second part, led by results:

EC50 value with PYL2 receptor-HAB1 complex as fraction of that of ABA [1] | SMILES | growth after drought and re-watering (soybean; 50 μM sprayed once a day for two days, 9 days of drought, FIG. 14a) | growth after drought [2] | survival/growth after drought [2] | growth after drought and re-watering (soybean; [3])
about ⅛ | CCCN1C(=O)OCc2cc(NS(=O)(=O)Cc3c(F)c(F)c(C)c(F)c3F)ccc21 [Compound 0428] | significantly better growth after re-watering than that in the DMSO-sprayed control group | exhibits a better growth condition than that in the control group and that sprayed with ABA; also recorded: significantly better than that of plants in DMSO-sprayed control group and plants sprayed with 5 μM (+)-ABA |  | 
⅕-⅛ | Cc1c(F)c(F)c(CS(=O)(=O)Nc2ccc3c(c2)C(C)OC(=O)N3CCCF)c(F)c1F (stereo not shown) [Compound 0715] |  |  | still grows normally; also recorded: still survived | 
1/15 | CCCN1C(=O)OC(C)(C)c2cc(NS(=O)(=O)Cc3c(F)c(F)c(C)c(F)c3F)ccc21 [Compound 0304] |  |  |  | significantly better than that of the control group (DMSO) or that of the soybean treated with same concentration of ABA; also recorded: significantly better growth after re-watering than that in the DMSO-sprayed control group and the plants sprayed with the same concentration of ABA
1/29 | CCCN1C(=O)OC(C)c2cc(NS(=O)(=O)Cc3c(F)c(F)c(C)c(F)c3F)ccc21 (stereo not shown) [Compound 0224] |  |  | still grows normally; also recorded: still survived | significantly better than that of the control group (DMSO) or that of the soybean treated with same concentration of ABA; also recorded: significantly better growth after re-watering than that in the DMSO-sprayed control group and the plants sprayed with the same concentration of ABA
